Laboratory results: US12383545B1, “Treatment of migraine” (priority 2018, dated 2025)
Where “and” joins values, the source holds several entries; their conditions need not be identical. Equal entries are not always repeated.

Test system: participants with episodic migraine
Assay: Study A: phase 3 randomized double-blind placebo-controlled 12-week trial, eDiary efficacy (monthly migraine days, headache days, acute medication use days, responder rates)
Assay type: in vivo, human
Conditions: for Change from baseline in mean monthly acute medication use days, LS mean change (SE) / Change from baseline in mean monthly headache days, LS mean change (SE) / Change from baseline in mean monthly migraine days, LS mean change (SE) / Mean monthly acute medication use days, LSMD vs. placebo (95% CI) / Mean monthly headache days, LSMD vs. placebo (95% CI) / Mean monthly migraine days, LSMD vs. placebo (95% CI): across 12-week treatment period; for Change from baseline in mean monthly acute medication use days, LS mean change (SE) / Change from baseline in mean monthly headache days, LS mean change (SE) / Change from baseline in mean monthly migraine days, LS mean change (SE) / Mean monthly acute medication use days, LSMD vs. placebo (95% CI) / Mean monthly headache days, LSMD vs. placebo (95% CI) / Mean monthly migraine days, LSMD vs. placebo (95% CI) / ≥50% reduction in 3-month average of monthly migraine days, odds ratio vs. placebo (95% CI) / ≥50% reduction in 3-month average of monthly migraine days, responder n (%): mITT; for decrease in mean monthly headache days / decrease in monthly migraine days: 12 weeks; for decrease in mean monthly headache days / decrease in monthly migraine days / decrease in mean monthly acute medication use days: given as decrease; for decrease in mean monthly acute medication use days: across 12 weeks; for proportion of participants who reported a migraine day: first full day after study drug administration; for LS mean change from baseline in mean headache days / LS mean reduction from baseline in mean cumulative headache hours: first treatment period; for LS mean change from baseline in acute medication use days / LS mean change from baseline in moderate/severe headache days: first treatment period (weeks 1-4); for Mean change from baseline in weekly migraine days: first week of treatment; for odds ratio vs placebo for reporting a migraine: post dose day 1
Description: Study A: A phase 3, multicenter, randomized, double-blind, placebo-controlled, parallel-group study was conducted to evaluate the efficacy, safety, and tolerability of oral atogepant for the prevention of migraine in participants with episodic migraine (EM).
This study comprised a 4-week screening and baseline period, a 12-week double-blind treatment period, and a 4-week follow-up period. The total study duration was 20 weeks.
Adults 18 to 80 years of age with 4 to 14 migraine days per month in the 3 months prior to visit 1, and 4 to 14 migraine days during the 28-day baseline period per electronic Diary, were allowed to enroll. Inclusion criteria included at least a 1-year history of migraine with or without aura consistent with a diagnosis, diagnosed as specified in the International Classification of Headache Disorders, 3rd edition, version (ICHD-3), and the age of the participant at the time of migraine onset was <50 years. Exclusion criteria included a history of migraine accompanied by diplopia or decreased level of consciousness or retinal migraine; a current diagnosis of chronic migraine, new persistent daily headache, trigeminal autonomic cephalgia (e.g., cluster headache), or painful cranial neuropathy as defined by ICHD-3, or if they averaged 15 or more migraine days per month across the 3 months prior to Visit 1 or during the 28-day baseline period; a history of an inadequate response to >4 medications (2 of which have different mechanisms of action) prescribed for the treatment of migraine; and participants with clinically significant hematologic, endocrine, cardiovascular, pulmonary, renal, hepatic, gastrointestinal, or neurologic disease. Use of opioids or barbiturate on more than 2 days per month, triptans or ergots on 10 or more days per month, or simple analgesics (e.g., aspirin, non-steroidal anti-inflammatory drugs, acetaminophen) on 15 or more days per month in the 3 months prior to Visit 1 or during the 28-day baseline period were also excluded. Use of barbiturates was also excluded 30 days prior to screening and throughout the duration of the trial.
Randomization was stratified based on prior exposure (yes/no) to a migraine prevention medication with proven efficacy, such as antiepileptics, tricyclic antidepressants, beta-blockers, calcium channel blocker, angiotensin receptor blocker or converting enzyme inhibitor, or serotonin-norepinephrine reuptake inhibitors. Approximately 70% of randomized participants took at least one prior migraine prevention medication with proven efficacy. Participants were not on concurrent medication during the study.
A total of 910 patients were randomized 1:1:1:1 to one of the four treatment groups (10 mg QD, 30 mg QD, 60 mg QD, or placebo). Efficacy analyses were based on the Modified Intent-to-Treat Population (mITT) of 873 patients.
All participants were instructed to take trial treatment orally at approximately the same time once daily for 12 weeks. To maintain the blinding, all participants took 3 tablets of trial treatment provided in identical blister cards: placebo (placebo 10 mg/placebo 30 mg/placebo 60 mg), atogepant 10 mg (atogepant 10 mg/placebo 30 mg/placebo 60 mg), atogepant 30 mg (placebo 10 mg, atogepant 30 mg, placebo 60 mg), and atogepant 60 mg (placebo 10 mg/placebo 30 mg/atogepant 60 mg). Participants, site personnel, and trial sponsor personnel were blinded to the treatment assignment. Tablet formulations for CGRP compounds are described, for example, in U.S. Pat. No. 10,117,936.
Participants were allowed to take acute treatments for migraine which included triptans, ergot derivatives, opioids, acetaminophen, non-steroidal anti-inflammatory drugs, and antiemetic agents. Participants were not allowed to take any preventive treatments for migraine 30 days prior to visit 1 and throughout the trial.
Efficacy assessments were recorded by the participant in an electronic diary at home or via eTablet at the trial site during clinic visits. […]

[1] = range across atogepant 10, 30, 60 mg groups

C[C@@H]1[C@H](c2c(F)ccc(F)c2F)C[C@H](NC(=O)c2cnc3c(c2)C[C@@]2(C3)C(=O)Nc3ncccc32)C(=O)N1CC(F)(F)F [atogepant]
100% reduction in 3-month average of monthly migraine days, responder n (%) (10 mg QD): 17 (7.9) %
≥25% reduction in 3-month average of monthly migraine days, responder n (%) (10 mg QD): 73.4%
≥75 reduction in 3-month average of monthly migraine days, responder n (%) (10 mg QD): 30.4%
Change from baseline in mean monthly acute medication use days, LS mean change (SE) (10 mg QD): -3.66 days
Change from baseline in mean monthly headache days, LS mean change (SE) (10 mg QD): -3.94 days
Change from baseline in mean monthly migraine days, LS mean change (SE) (10 mg QD): -3.69 days
Mean monthly acute medication use days, LSMD vs. placebo (95% CI) (10 mg QD): -1.31 days
Mean monthly headache days, LSMD vs. placebo (95% CI) (10 mg QD): -1.42 days
Mean monthly migraine days, LSMD vs. placebo (95% CI) (10 mg QD): -1.21 days
≥50% reduction in 3-month average of monthly migraine days, odds ratio vs. placebo (95% CI) (10 mg QD): 3.06
≥50% reduction in 3-month average of monthly migraine days, responder n (%) (10 mg QD): 55.6%
≥50% reduction in 3-month average of monthly migraine days, responder n (%) (10 mg QD, listed as Atogepant): (55.6) %
decrease in mean monthly headache days (10 mg): 3.94 days
decrease in monthly migraine days (10 mg): 3.69 days
decrease in mean monthly acute medication use days (10 mg): 3.66 days
proportion of participants who reported a migraine day (10 mg): 14.1%
LS mean change from baseline in mean headache days (10 mg): −3.2
LS mean reduction from baseline in mean cumulative headache hours (10 mg): -23.3 h
LS mean change from baseline in acute medication use days (10 mg): −3.3
LS mean change from baseline in moderate/severe headache days (10 mg): −3.0
Mean change from baseline in weekly migraine days (10 mg): −0.77
odds ratio vs placebo for reporting a migraine (10 mg): 0.49
mean change from baseline in mean monthly migraine days (10 mg, weeks 1-4): −3.1
mean change from baseline in mean monthly migraine days (10 mg, weeks 5-8): −3.7
mean change from baseline in mean monthly migraine days (10 mg, weeks 9-12): −4.2
100% reduction in 3-month average of monthly migraine days, responder n (%) (30 mg QD): 11 (4.0) %
≥25% reduction in 3-month average of monthly migraine days, responder n (%) (30 mg QD): 172 (77.1) %
≥75 reduction in 3-month average of monthly migraine days, responder n (%) (30 mg QD): 66 (29.6) %
Change from baseline in mean monthly acute medication use days, LS mean change (SE) (30 mg QD): -3.68 days
Change from baseline in mean monthly headache days, LS mean change (SE) (30 mg QD): -4.04 days
Change from baseline in mean monthly migraine days, LS mean change (SE) (30 mg QD): -3.86 days
Mean monthly acute medication use days, LSMD vs. placebo (95% CI) (30 mg QD): -1.33 days
Mean monthly headache days, LSMD vs. placebo (95% CI) (30 mg QD): -1.53 days
Mean monthly migraine days, LSMD vs. placebo (95% CI) (30 mg QD): -1.38 days
≥50% reduction in 3-month average of monthly migraine days, odds ratio vs. placebo (95% CI) (30 mg QD): 3.53
≥50% reduction in 3-month average of monthly migraine days, responder n (%) (30 mg QD): 58.7%
≥50% reduction in 3-month average of monthly migraine days, responder n (%) (30 mg QD, listed as Atogepant): (58.7) %
decrease in mean monthly headache days (30 mg): 4.04 days
decrease in monthly migraine days (30 mg): 3.86 days
decrease in mean monthly acute medication use days (30 mg): 3.68 days
proportion of participants who reported a migraine day (30 mg): 10.8%
LS mean change from baseline in mean headache days (30 mg): −3.4
LS mean reduction from baseline in mean cumulative headache hours (30 mg): -23.6 h
LS mean change from baseline in acute medication use days (30 mg): −3.4
LS mean change from baseline in moderate/severe headache days (30 mg): −3.2
Mean change from baseline in weekly migraine days (30 mg): −0.94
odds ratio vs placebo for reporting a migraine (30 mg): 0.33
mean change from baseline in mean monthly migraine days (30 mg, weeks 1-4): −3.4
mean change from baseline in mean monthly migraine days (30 mg, weeks 5-8): −3.9
mean change from baseline in mean monthly migraine days (30 mg, weeks 9-12): −4.3
100% reduction in 3-month average of monthly migraine days, responder n (%) (60 mg QD): 17 (7.7) %
≥25% reduction in 3-month average of monthly migraine days, responder n (%) (60 mg QD): 180 (81.1) %
≥75 reduction in 3-month average of monthly migraine days, responder n (%) (60 mg QD): 84 (37.8) %
Change from baseline in mean monthly acute medication use days, LS mean change (SE) (60 mg QD): -3.85 days
Change from baseline in mean monthly headache days, LS mean change (SE) (60 mg QD): -4.23 days
Change from baseline in mean monthly migraine days, LS mean change (SE) (60 mg QD): -4.20 days
Mean monthly acute medication use days, LSMD vs. placebo (95% CI) (60 mg QD): -1.50 days
Mean monthly headache days, LSMD vs. placebo (95% CI) (60 mg QD): -1.71 days
Mean monthly migraine days, LSMD vs. placebo (95% CI) (60 mg QD): -1.72 days
≥50% reduction in 3-month average of monthly migraine days, odds ratio vs. placebo (95% CI) (60 mg QD): 3.82
≥50% reduction in 3-month average of monthly migraine days, responder n (%) (60 mg QD): 60.8%
≥50% reduction in 3-month average of monthly migraine days, responder n (%) (60 mg QD, listed as Atogepant): (60.8) %
decrease in mean monthly headache days (60 mg): 4.23 days
decrease in monthly migraine days (60 mg): 4.20 days
decrease in mean monthly acute medication use days (60 mg): 3.85 days
proportion of participants who reported a migraine day (60 mg): 12.3%
LS mean change from baseline in mean headache days (60 mg): −3.8
LS mean reduction from baseline in mean cumulative headache hours (60 mg): -25.1 h
LS mean change from baseline in acute medication use days (60 mg): −3.7
LS mean change from baseline in moderate/severe headache days (60 mg): −3.8
Mean change from baseline in weekly migraine days (60 mg): −1.03
odds ratio vs placebo for reporting a migraine (60 mg): 0.39
mean change from baseline in mean monthly migraine days (60 mg, weeks 1-4): −3.9
mean change from baseline in mean monthly migraine days (60 mg, weeks 5-8): −4.2
mean change from baseline in mean monthly migraine days (60 mg, weeks 9-12): −4.4
times more likely than placebo to achieve ≥50% reduction in the 12-week average of MMDs (atogepant treated participants (all doses)): ≥ 3 times
participants with 100% reduction in MMDs across 12 weeks [1]: 5%-8%
participants with ≥25% reduction in MMDs across 12 weeks [1]: 73%-81%
participants with ≥50% reduction in mean MMDs across 12 weeks [1]: 56%-61% and 56-61%
participants with ≥75% reduction in MMDs across 12 weeks [1]: 30%-38%
